{"source": "patent US20240002846A1", "about": "“COMPOSITIONS AND METHODS FOR THE DIAGNOSIS AND TREATMENT OF ITCH” (Duke University, priority 2020, published 2024)", "key": {"[1]": {"system": "rat TRPV4 mutations (R746C, R746G, R746D, K754G, R757G, R774G, and W776G)", "assay": "Ca2+ imaging in HEK cells transfected with rat TRPV4 mutations", "format": "cell-based", "procedure": "Cell culture and transfection. HEK293 cells (ATCC® CRL-1573) were cultured on poly-D-lysine coated coverslips in 24-well plate containing DMEM media with high-Glucose (Gibco, Gaithersburg, MD) supplemented with 10% fetal bovine serum (FBS, HyClone Laboratories, Logan, UT) and 100 U/mL of penicillin/streptomycin (Gibco, Gaithersburg, MD). Cell cultures were maintained with 5% of CO2 in a humidified incubator at 37° C. HEK cells were transfected with rat or human wild type or mutant TRPV4 channels with EGFP or YFP coupled to their C-termini (1.5 μg of plasmid for excised patch clamp and Ca^2+ imaging and 200 ng for single-channel experiments). The jetPEI™ Polyplus transfection reagent (Polyplus Transfection, New York, NY) for electrophysiology or Lipofectamine™ 2000 Reagent (Invitrogen, Waltham, MA) for Ca^2+ imaging were used for transfections per manufacturer's instructions as previously described (Chen et al. Pain 2014, 155, 2662-2672; Morales-Lazaro et al. Nat. Commun. 2016, 7, 13092). To investigate whether miR-146a can directly activate TRPV1 channels or indirectly via TLRs, HEK293 cells were transfected with rTRPV1 or co-transfected rTRPV1 with rTLR7, rTLR2, or rTLR6 (Addgene, Watertown, MA) for Ca^2+ imaging assay. Control cells were transfected with GFP or YFP.\nSite-directed mutagenesis of TRPV4 channels. TRPV4 sequences of multiple species were aligned using Clustal Omega program. Site-directed mutagenesis to generate point mutations in rat and human TRPV4 channels were carried out using Phusion DNA polymerase enzyme (Salazar et al. Nat. Struct. Mol. Biol. 2009, 16, 704-710; Rosenbaum et al. Neuron 2002, 33, 703-713; Hsieh et al. Methods Mol. Biol. 2013, 978, 173-186), with final sequencing to check for presence of the induced mutation. We introduced the following mutations into the rTRPV4 or hTRPV4 channel: R746C, R746G, R746D, K754G, R757G, R774G, and W776G.\nIn vitro and ex vivo Ca^2+ imaging. […] Ratios of emissions were acquired at 0.5 Hz. ΔR/R0 was determined as the fraction of the increase of a given ratio over baseline ratio divided by baseline ratio. […]"}, "hTRPV4-R746C": {"biological_target": "T1, hTRPV4-R746C (Homo sapiens, UniProt Q9HBA0, R746C)", "T1 construct": "expressed in transfected cells; host or cells: HEK293", "T1 sequence (Q9HBA0 whole entry R746C)": "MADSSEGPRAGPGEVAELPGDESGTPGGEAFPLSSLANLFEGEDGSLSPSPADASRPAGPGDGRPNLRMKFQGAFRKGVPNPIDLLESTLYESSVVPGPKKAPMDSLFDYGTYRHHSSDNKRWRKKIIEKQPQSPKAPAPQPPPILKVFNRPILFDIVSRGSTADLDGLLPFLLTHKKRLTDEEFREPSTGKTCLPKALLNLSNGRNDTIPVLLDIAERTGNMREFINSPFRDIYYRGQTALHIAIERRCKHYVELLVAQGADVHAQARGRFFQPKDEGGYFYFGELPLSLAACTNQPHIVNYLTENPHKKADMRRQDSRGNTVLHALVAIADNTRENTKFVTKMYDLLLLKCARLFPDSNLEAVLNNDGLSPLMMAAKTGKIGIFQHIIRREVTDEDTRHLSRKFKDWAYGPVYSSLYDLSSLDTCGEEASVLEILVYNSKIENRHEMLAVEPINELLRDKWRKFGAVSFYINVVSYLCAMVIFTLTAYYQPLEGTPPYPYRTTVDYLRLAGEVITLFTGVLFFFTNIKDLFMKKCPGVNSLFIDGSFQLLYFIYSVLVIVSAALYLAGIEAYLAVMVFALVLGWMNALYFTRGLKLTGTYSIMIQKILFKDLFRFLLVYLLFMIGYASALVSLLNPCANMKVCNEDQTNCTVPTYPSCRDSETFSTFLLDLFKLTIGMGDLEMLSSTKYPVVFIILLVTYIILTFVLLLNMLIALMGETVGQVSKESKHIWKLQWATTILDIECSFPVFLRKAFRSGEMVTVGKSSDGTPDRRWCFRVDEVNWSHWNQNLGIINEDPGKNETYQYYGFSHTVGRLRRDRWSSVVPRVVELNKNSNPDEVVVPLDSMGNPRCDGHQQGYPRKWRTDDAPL", "assay": "Inside-out patch-clamp, hTRPV4-R746C", "format": "biochemical", "conditions": "5 μM LPC 18:1", "procedure": "(§1) Cell culture and transfection. HEK293 cells (ATCC® CRL-1573) were cultured on poly-D-lysine coated coverslips in 24-well plate containing DMEM media with high-Glucose (Gibco, Gaithersburg, MD) supplemented with 10% fetal bovine serum (FBS, HyClone Laboratories, Logan, UT) and 100 U/mL of penicillin/streptomycin (Gibco, Gaithersburg, MD). Cell cultures were maintained with 5% of CO2 in a humidified incubator at 37° C. HEK cells were transfected with rat or human wild type or mutant TRPV4 channels with EGFP or YFP coupled to their C-termini (1.5 μg of plasmid for excised patch clamp and Ca^2+ imaging and 200 ng for single-channel experiments). […]\n(§2) Electrophysiology. Currents were recorded using the inside-out configuration of the patch-clamp technique (Hamill et al. Pflugers Arch. 1981, 391, 85-100). […] Mean current values in response to GSK1016790A or LPC 18:1 were measured after channel activation had reached the steady-state (˜3 min). […] Currents were low-pass filtered at 2 kHz and sampled at 10 kHz with an EPC 10 amplifier (HEKA Elektronik) and were plotted and analyzed with Igor Pro (Wavemetrics Inc.)."}, "rTRPV4": {"biological_target": "rTRPV4 (Rattus norvegicus, UniProt Q9ERZ8)", "sequence (Q9ERZ8 whole entry)": "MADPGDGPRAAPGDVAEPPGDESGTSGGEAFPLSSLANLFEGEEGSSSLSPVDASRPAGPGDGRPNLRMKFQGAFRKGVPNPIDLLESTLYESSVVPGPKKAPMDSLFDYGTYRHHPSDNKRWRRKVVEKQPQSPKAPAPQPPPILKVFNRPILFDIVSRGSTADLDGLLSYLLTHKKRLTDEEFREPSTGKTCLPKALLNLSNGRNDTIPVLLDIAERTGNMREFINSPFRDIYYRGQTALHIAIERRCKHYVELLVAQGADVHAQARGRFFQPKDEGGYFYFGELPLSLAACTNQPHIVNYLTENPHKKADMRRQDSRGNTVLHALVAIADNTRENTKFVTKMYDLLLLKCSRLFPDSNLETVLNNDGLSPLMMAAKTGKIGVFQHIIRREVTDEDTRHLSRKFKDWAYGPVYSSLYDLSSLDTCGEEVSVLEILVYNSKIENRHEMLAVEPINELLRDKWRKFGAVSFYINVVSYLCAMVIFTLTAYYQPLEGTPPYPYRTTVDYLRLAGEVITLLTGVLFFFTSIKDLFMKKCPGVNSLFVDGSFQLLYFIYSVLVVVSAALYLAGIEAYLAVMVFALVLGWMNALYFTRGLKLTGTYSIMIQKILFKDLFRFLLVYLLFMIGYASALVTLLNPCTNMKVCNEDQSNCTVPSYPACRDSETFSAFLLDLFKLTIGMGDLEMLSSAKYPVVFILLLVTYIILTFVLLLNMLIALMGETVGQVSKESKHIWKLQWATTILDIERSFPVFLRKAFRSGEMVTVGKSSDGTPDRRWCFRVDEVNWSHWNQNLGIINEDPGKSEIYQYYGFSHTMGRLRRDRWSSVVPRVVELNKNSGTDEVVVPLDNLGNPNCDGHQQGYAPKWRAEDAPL", "assay": "Inside-out patch-clamp, HEK cells transfected with rTRPV4", "format": "biochemical", "parameters": "expressed in transfected cells; host or cells: HEK293", "conditions": "5 μM LPC 18:1, WT-rTRPV4, inside-out patches", "procedure": "as §1, §2"}, "rTRPV4-R746D": {"biological_target": "rTRPV4-R746D (Rattus norvegicus, UniProt Q9ERZ8, R746D)", "sequence (Q9ERZ8 whole entry R746D)": "as the sequence (Q9ERZ8 whole entry) above, with R746D counted along it", "assay": "In vitro interaction (overlay) assay LPC-TRPV4-R746D", "format": "binding", "parameters": "made in house; host or cells: HEK293 cells, surface protein fraction", "conditions": "200 pmol per spot", "procedure": "In vitro interaction assays of LPC-TRPV4. Surface proteins were obtained from HEK293 cells transiently expressing rTRPV4-EGFP channels using the Pierce Cell Surface Isolation kit (Pierce Biotechnology, Rockford, IL) following the manufacturer's instructions. Overlay assays were performed as previously described (Morales-Lazaro et al. Nat. Commun. 2016, 7, 13092). In brief, LPC 18:1 was spotted (200 pmol per spot) onto a nitrocellulose membrane (GE Healthcare, Pittsburgh, PA) and then blocked with 1% fatty acid-free BSA (Calbiochem) and 6% fat-free dried milk in PBS. Membranes were then incubated with the surface protein solutions and exposed to anti-GFP antibody (Sigma, St. Louis, MO) diluted 1:1000 in 3% fat-free dried milk in PBST (with 0.1% of Tween). Membranes were incubated with horseradish peroxidase-conjugated secondary anti-rabbit antibody (Cell Signaling Technology) diluted 1:7500 in 6% fat-free dried milk in PBST. The binding of rTRPV4-EGFP and TRPV4-R746D-EGFP to the lipid-containing spots was visualized by chemiluminescence by exposing the blot for 15 min (Amersham Bioscience, Piscataway, NJ). Semi-quantitative densitometric analysis was done using ImageJ (NIH) and expressed as relative protein levels of TRPV4 bound to each spot."}}, "note": "Where “and” joins values, the source holds several entries; their conditions need not be identical. Identical values can stand only once. Like-named read-outs stand apart in the source and are kept apart here.", "data": [{"substance": "LPC 18:1", "values": [{"measurement": "Ca2+ signal induced by 10 μM LPC 18:1 in TRPV4 mutants vs rTRPV4", "setting": "[1]", "value": "drastically reduced"}, {"measurement": "Ca2+ signal induced by 10 μM LPC 18:1 in TRPV4 mutants vs rTRPV4", "setting": "[1]; listed as LPC (18:1)", "value": "significantly reduced potency"}, {"measurement": "average activation of currents, normalized to 1 μM GSK101", "setting": "hTRPV4-R746C", "value": "11±4", "unit": "%"}, {"measurement": "average activation of currents, normalized to 1 μM GSK101", "setting": "rTRPV4", "value": "54±4", "unit": "%"}, {"measurement": "average activation of currents, normalized to 1 μM GSK101", "setting": "rTRPV4; listed as LPC (18:1)", "value": "54% and ~50%"}, {"measurement": "binding of LPC 18:1 to rTRPV4-R746D relative to rTRPV4", "setting": "rTRPV4-R746D", "value": "significantly reduced binding"}, {"measurement": "binding of LPC 18:1 to rTRPV4-R746D relative to rTRPV4", "setting": "rTRPV4-R746D; listed as LPC (18:1)", "value": "significant reduction of this interaction"}]}]}
